A short description of this series: Brain exposure experiments in mice. It is filed as in vivo, mouse. The conditions noted are these: 1 hour after exposure. On the procedure:
Brain exposure experiments were performed wherein mice were exposed to Compound Example 4 at an IV dosage of 1 mg/kg (Table 5).

Setting [1] is: IV 1 mg/kg, individual mice (7, 8, 9), 1 mg/kg.

Several values for one entry are separate records, joined by “and”; a condition that tells them apart may be missing. Identical values can stand only once. Like-named read-outs stand apart in the source and are kept apart here.

In the case of `CN1CCC2(CC1)CN(c1ccc(C(=O)Nc3cc(-c4cccs4)ccc3N)cn1)C(=O)O2` [Example 4, N-(2-amino-5-(thiophen-2-yl)phenyl)-6-(8-methyl-2-oxo-1-oxa-3,8-diazaspiro[4.5]decan-3-yl)nicotinamide], the “brain penetration (in words)” value (IV 1 mg/kg) is on record as “very low brain penetration”. Further, the Brain concentration under setting [1] was 0.0619 µg/mL and 0 µg/mL and 0.073 µg/mL. Moreover, the Plasma concentration under setting [1] is 1030 ng/mL and 2.22 μM and 1620 ng/mL and 3.50 μM. Moreover, the concentration at 1 h by setting is: (IV 1 mg/kg, individual mice (7, 8, 9), 1 mg/kg, read-out: Brain concentration) 0.13 µM and 0.00 µM and 0.16 µM; (mouse, brain, iv, 1 mg/kg, Average, read-out: Brain concentration) 67.5 ng/mL and 150 nM; (mouse, plasma, iv, 1 mg/kg, Average, read-out: Plasma concentration) 1440 ng/mL and 3.1 µM; (mouse, plasma, iv, 1 mg/kg, individual mice (7, 8, 9), read-out: Plasma concentration) 1660 ng/mL and 3.59 µM.

The values are drawn from patent US11155550B2, “Histone deacetylase inhibitors and methods of use thereof” (Reaction Biology Corp., priority 2018, dated 2021).
